{"source": "patent US9636317B2", "about": "“Compositions and methods of use of phorbol esters” (priority 2007, dated 2017)", "key": {"S180 cell-injected mice": {"tested_on": "S180 cell-injected mice", "assay": "Effect of TPA on peripheral WBC and Hb counts in S180 cell-injected mice", "conditions": "for WBC counts: second day after treatment", "description": "Sarcoma 180 (S180) cells were injected into Kwen-Ming mice. On the third day, the mice were given TPA interperitoneally (i.p.). at 50, 100 or 200 μg/kg/day for 7 days. On the second day after the treatment was completed, blood samples were taken from the tails of the treated mice for WBC and Hb analyses."}, "HIV patients": {"tested_on": "HIV patients", "assay": "Third clinical study of HIV+ patients: symptoms and side effects (incl. case studies)", "format": "in vivo, human", "description": "Six patients, two males and four females between the ages of 37 and 52 years of age (Patients #13-18), were treated with TPA. Four of these patients previously received TPA treatment in combination with anti-HIV drugs in the two previous clinical studies. The two remaining patients had never been treated with TPA, but had previously received anti-HIV drug regimens. All treatments were stopped three days prior to the initiation of the third clinical study and were not resumed until 60 days after completion of the TPA treatment. The resumption of the standard HIV treatments was required by local health authorities.\nEach patient in the study received 150 μg of TPA in 200 ml of sterile saline by intravenous infusion over a 1.5 to 2 hour period daily for 60 days for a total administered dose of 9.0 mg. Following completion of the 60 days of TPA therapy, these patients remained under observation for an additional 60 days though the received no further treatment.\nResults of treatment of initially symptomatic AIDS patients treated with TPA according to the protocols of Example III, IV, and V. Patients who participated in multiple studies are in some cases identified by more than one patient number. All patient identification numbers correspond to the patient numbers in Tables 1-7."}, "[1]": {"assay": "Dose ranging study: toxicity and side effects of TPA doses given clinically by i.v. infusion", "format": "in vivo, human", "description": "Due to the strong local irritation caused by TPA application, TPA was given to patients by intravenous (i.v.) infusion. TPA solution in a sterile syringe was injected into 200 ml of sterile saline and mixed well for i.v. infusion.\nOne mg TPA in solution was mixed well with 200 ml of sterile saline for intravenous infusion which was completed in 1 h at the rate of 16 μg/min. […] The above symptoms could be alleviated by giving the patients glucocorticoids. […] However, these side effects were short lived and reversible. The cardiac, hepatic, renal and pulmonary functions were all found to be normal.\n0.5 mg of TPA in solution was mixed well with 200 ml of saline for intravenous infusion which was completed in 1 h at the rate of 8 μg/min. […] The patients tolerated the lower dose more easily. […] Difficulty in breathing was not observed. The cardiac, hepatic, renal and pulmonary functions were all normal.\n0.25 mg of TPA in solution was mixed well with 200 ml of saline for intravenous infusion which was completed in 1 h at the rate of 4 μg/min. […] The cardiac, hepatic, renal and pulmonary functions were all normal."}, "[2]": {"conditions": "TPA 50 μg/kg/day i.p. for 7 days"}, "[3]": {"conditions": "TPA 100 μg/kg/day i.p. for 7 days"}, "[4]": {"conditions": "TPA 200 μg/kg/day i.p. for 7 days"}}, "note": "“And” between values parts separate entries of the source, which are not always exact repeats. Equal entries are not always repeated. “Also recorded” adds a separate entry of the source.", "data": [{"molecule": "CCCCCCCCCCCCCC(=O)O[C@@H]1[C@@H](C)[C@@]2(O)[C@@H](C=C(CO)C[C@]3(O)C(=O)C(C)=C[C@@H]23)[C@@H]2C(C)(C)[C@]12OC(C)=O", "note": "[TPA, 12-O-tetradecanoylphorbol-13-acetate]", "values": [{"measurement": "Hb", "setting": "S180 cell-injected mice; [2]", "value": "136 ± 11", "unit": "g/L"}, {"measurement": "WBC counts", "setting": "S180 cell-injected mice; [2]", "value": "16.1±7.4 ×10^9/L"}, {"measurement": "Hb", "setting": "S180 cell-injected mice; [3]", "value": "149 ± 12", "unit": "g/L"}, {"measurement": "WBC counts", "setting": "S180 cell-injected mice; [3]", "value": "18.7±3.0 ×10^9/L"}, {"measurement": "Hb", "setting": "S180 cell-injected mice; [4]", "value": "149 ± 10", "unit": "g/L"}, {"measurement": "WBC counts", "setting": "S180 cell-injected mice; [4]", "value": "20.7±3.4 ×10^9/L"}, {"measurement": "recurrence of AIDS symptoms", "setting": "HIV patients; 120 day observation and treatment period", "value": "no recurrence of AIDS symptoms"}, {"measurement": "side effects of TPA treatment (individual patient)", "setting": "HIV patients; protocol of Example V", "value": "local irritation due to a leaking needle; also recorded: a fever on one occasion; also recorded: skin irritation from a leaking needle; also recorded: no side effects"}, {"measurement": "AIDS symptoms during and after treatment (individual patient)", "setting": "HIV patients; protocol of Example V, antiviral therapy stopped", "value": "No AIDS symptoms returned; also recorded: remains symptom free; also recorded: No AIDS symptoms occurred"}, {"measurement": "fever during TPA infusion", "setting": "HIV patients; protocol of Example V, individual patients", "value": "38-38.5 °C and 38-39 °C"}, {"measurement": "Hb in the urine", "setting": "[1]; 0.25 mg/patient ×4/week", "value": "No Hb was detected in the urine"}, {"measurement": "cardiac, hepatic, renal and pulmonary functions", "setting": "[1]; 0.25 mg/patient ×4/week", "value": "normal"}, {"measurement": "chills and fever", "setting": "[1]; 0.25 mg/patient ×4/week", "value": "observed, but to a much lesser extent than with the higher dosages"}, {"measurement": "difficulty in breathing", "setting": "[1]; 0.25 mg/patient ×4/week", "value": "no patient suffered difficulty in breathing"}, {"measurement": "Hb in the urine", "setting": "[1]; 0.5 mg/patient ×2/week", "value": "Occasionally, Hb was detected in patients' urine"}, {"measurement": "cardiac, hepatic, renal and pulmonary functions", "setting": "[1]; 0.5 mg/patient ×2/week", "value": "normal"}, {"measurement": "difficulty in breathing", "setting": "[1]; 0.5 mg/patient ×2/week", "value": "not observed"}, {"measurement": "Hb in the urine", "setting": "[1]; 1 mg/patient/week", "value": "Hb was detected in the urine"}, {"measurement": "bleeding", "setting": "[1]; 1 mg/patient/week", "value": "caused a minority of patients to bleed"}, {"measurement": "cardiac, hepatic, renal and pulmonary functions", "setting": "[1]; 1 mg/patient/week", "value": "normal"}, {"measurement": "difficulty in breathing", "setting": "[1]; 1 mg/patient/week", "value": "several patients suffered for a short period of time difficulty in breathing"}, {"measurement": "duration of fever", "setting": "[1]; 1 mg/patient/week i.v. infusion", "value": "3 to 5", "unit": "h"}, {"measurement": "patients' temperature (fever)", "setting": "[1]; 1 mg/patient/week i.v. infusion in 1 h", "value": "37.5-39.5 °C"}, {"measurement": "duration of chills", "setting": "[1]; 1 mg/patient/week i.v. infusion, start one hour after administration", "value": "about 30 min"}]}]}
